Where two headings read alike, the source gives them in different places. Bounds are passed on as bounds.

Broadly, the CC50 is the concentration that lowers cell viability or growth by half. A higher CC50 goes with lower toxicity to the cells. As usually defined, the EC50 is the concentration that produces a half-maximal response. What is called Ki is the dissociation constant of the complex between target and ligand, obtained from inhibition or displacement.

Data set [1] can be described thus: MTT cytotoxicity assay, 1321N1 astrocytoma cells. Format: cell-based. The following applies: human; for cytotoxicity at 72 h, 10000 nM: up to 10,000 nM, read-out: Cytotoxicity % effect. The protocol:
Potential cytotoxicity of 24 and its similarly potent analogs 27 and 30 was assessed in 3-(4,5-dimethylthiazol-2-yl)-2,5-diphenyl-2H-tetrazolium bromide (MTT) assays performed on human 1321N1 astrocytoma cells (Supplementary Table S3). This cell line was chosen since it is well-established for the screening of cytotoxic drugs, making it a reliable choice for assessing cytotoxicity.[46]
For the experiment, 1321N1 astrocytoma cells were seeded at a density of 1 × 10^5 cells/well in 180 µL of cell medium into transparent 96-well plates, whereby the outer wells only contained buffer (to avoid an edge effect). Cells were incubated for 24 h at 37°C, 5% CO2. Compound dilutions were prepared in DMSO. […] Subsequently, 20 µL of these compound dilutions were added to each well so that astrocytoma cells were incubated with varying concentrations of MRGPRX2 antagonists (0.01 µM–10 µM) at 37° C, 5% CO2. 5-Fluoruracil, a cytostatic drug, served as a positive control. Medium-containing DMSO in the absence of a compound served as a negative control. After 71 h, […] of MTT solution (5 mg/mL, prepared in Millipore water) was added to each well (final concentration 0.5 mg/mL) and cells were incubated again for another hour. Subsequently, the medium was removed, and cells were lyzed by adding 100 µL of DMSO per well. In order to dissolve the produced formazan dye crystals, plates were incubated for 2 min on a rotary shaker (150 rpm). Afterward, the UV absorbance at 570 nm was measured by using SoftMax® Pro5.1 Microplate Data Acquisition & Analysis Software (Molecular Devices, Sunnyvale, CA, USA). The UV absorbance at 690 nm was measured directly afterward to eliminate the background absorbance of residual medium and cell components. The values of the measured UV absorbance at 690 nm were subtracted from the values obtained by the measurement of UV absorbance at 570 nm. Three to four independent experiments were performed, each in triplicate.

Data set [2] is described as follows: Metabolic stability in human liver microsomes. Format: in vitro ADME. The following applies: both sexes, human liver microsomes 0.25 mg/ml, compound 1 µM; for half-life at 1 µM: human, liver microsomes, read-out: T1/2 (half-life); for microsomal CLint at 1 µM: read-out: Clint (intrinsic clearance).
Data set [3] addresses T1, MRGPRX2 (Homo sapiens, UniProt Q96LB1).
T1 sequence (Q96LB1 1-330): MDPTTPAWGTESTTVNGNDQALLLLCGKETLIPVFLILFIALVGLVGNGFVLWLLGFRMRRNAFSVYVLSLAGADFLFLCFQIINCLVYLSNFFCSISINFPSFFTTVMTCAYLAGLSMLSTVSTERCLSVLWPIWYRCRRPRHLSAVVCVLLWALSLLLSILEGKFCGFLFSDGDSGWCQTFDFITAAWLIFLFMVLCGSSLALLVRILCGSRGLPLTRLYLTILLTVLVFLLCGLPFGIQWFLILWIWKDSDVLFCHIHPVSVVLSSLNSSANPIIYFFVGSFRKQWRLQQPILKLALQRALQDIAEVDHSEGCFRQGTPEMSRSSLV
Briefly: β-arrestin assay (agonist mode), β-arrestin CHO cells recombinantly expressing MRGPRX2. Format: cell-based. The following applies: for EC50: agonist test, read-out: β-Arrestin assay EC50 ± SEM; for β-Arrestin assay % activation: normalized to CST-14 (EC80 5,000 nM). An excerpt: Eurofins DiscoverX (Fremont, CA, USA) provided engineered Chinese hamster ovary (CHO) cells stably expressing β-arrestin-2 fused to a large β-galactosidase fragment (enzyme acceptor, EA). These CHO-K1-β-arrestin-2 cells were commercially available (93-0164). CHO-K1-β-arrestin-2 cells that additionally expressed MRGPRX1, -2, or -4 fused to the fragment ProLink™ (PK) were also purchased from the same company (93-0919C2, 93-0309C2, and 3-0541C2A, respectively). CHO cells expressing MRGPRX3 were generated as previously […].[31] The cells were grown in F-12 Ham Nutrient Mixture (Life Technologies) supplemented with 10% FBS, 100 U/mL of penicillin, 100 µg/mL of streptomycin (PAN-Biotech), 300 μg/mL of hygromycin B (PAN-Biotech), and 800 μg/mL of gentamicin (PAN-Biotech) at 37 °C and 5% CO2.).
The assays were carried out as previously described.[22] […] After 30 min of incubation at 37 °C and 5% CO2, Cortistatin-14 (CST-14, Bioscience, Bristol, United Kingdom) or another MRGPRX2 agonist that served as a standard agonist was added, and the mixture was incubated for 90 min at 37 °C and 5% CO2. Next, a detection reagent (50 µL, DiscoverX) was added, and the mixture was incubated at room temperature in the dark for 60 min. Chemiluminescence was measured on a Mithras LB 940 plate reader (Berthold Technologies, Bad Wildbad, Germany). The results represent means ± SEM of three to five independent experiments, each in duplicates.
^d β-Arrestin CHO cells recombinantly expressing MRGPRX2
^f Percentage of activation of normalized to CST-14 (EC80 5,000 nM)

Data set [4] concerns the target T1, MRGPRX2. Briefly: β-arrestin recruitment assay (antagonist mode), β-arrestin-CHO cells recombinantly expressing MRGPRX2. As to conditions: versus CST-14 (EC80 1,000 nM, EC50 483 nM); Cheng-Prusoff; read-out: β-Arrestin assay Ki ± SEM. Further details: expressed in transfected cells. Format: cell-based. In general terms: Activated receptors often draw arrestin, which recruitment assays turn into a signal.

The target of data set [5] is T1, MRGPRX2. Kind of data set: Ca2+ mobilization assay, LN229 cells overexpressing MRGPRX2. Format: cell-based. Further details: expressed in transfected cells; host or cells: LN229 human glioblastoma cells; plasmid pLXSN-MRGPRX2 (Addgene #213960). The following applies: for Ki: versus CST-14 (EC80 800 nM, EC50 452 nM), Cheng-Prusoff, read-out: Ca2+ assay Ki ± SEM; for MRGPRX2 antagonistic potency in Ca2+ assay, in words: versus CST-14. Here is the method: Glioblastoma LN229-MRGPRX2 stably expressing MRGPRX2 (produced by retroviral transfection) were seeded into black sterile 96-well microplates at a density of 5 × 10^4 cells/well in 200 µL of DMEM/F12-Nut Mix medium, supplemented with 10% FCS, 100 U/mL of penicillin 100 µg/mL of streptomycin, and 200 µg/mL of G418 and incubated for 18–22 h.
The next day Fluo-4 AM Solution (1 mM) (Thermo Fisher Scientific) was prepared and used to prepare cell loading dye solution consisting of 4970 µL of Hank’s Buffered Saline Solution (HBSS) buffer, 15 µL of 20% Pluronic-F and 15 µL of 1 mM Fluo-4 AM. Next, the cell medium was removed and exchanged for 40 µL of dye solution per well (final concentration of Fluo-4 AM: 3 µM). The cell plate was incubated for 60 min in the dark at room temperature, then the dye solution was removed and replaced by 189 µL HBSS. Subsequently, 1 µL of antagonist diluted in DMSO was added and incubated for 30 min at room temperature and in the dark (final DMSO concentration 0.5%, v/v). CST-14 or another agonist prepared in HBSS as well as carbachol (final concentration 100 µM) were pipetted (10 µL) using a FlexStation® 3 Multi-Mode Microplate Reader. For the determination of baseline fluorescence, HBSS buffer containing solvent of the investigated compound was used. Fluorescence was measured for 120 intervals of 1 s (number of flashes: 10) at a wavelength of 525 nm (excitation 485 nm) using the SoftMax® Pro5.1 Microplate Data Acquisition & Analysis Software. Three independent experiments were performed in duplicates. Measurements are provided in relative fluorescence units and normalized to the maximal effect of CST-14.
A general note: Calcium flux is commonly read through the fluorescence of an indicator in the cells.

The target in data set [6] is T1, MRGPRX2. Set-up: expressed in transfected cells; host or cells: LN229 human glioblastoma cells; plasmid pLXSN-MRGPRX2 (Addgene #213960); method as in earlier work. As to conditions: read-out: EC50 as MRGPRX2 agonist; cited from earlier work.

For `CCc1c(C(C)C)[nH]c2nc3cc(C)c(C)cc3n2c1=O` [Compound 27], in data set [1], the CC50 at 72 h is above 10000 nM and the cytotoxicity at 72 h, 10000 nM was found to be 28%. Also, in data set [2], the half-life at 1 µM worked out at 10.6 min and the microsomal CLint at 1 µM was 131 µL/min/mg. At MRGPRX2 [3], the EC50 is above 10000 nM and the “β-Arrestin assay % activation” value stood at 0%. The Ki on MRGPRX2 [4] amounted to 28.5 ± 23.9 nM. On MRGPRX2 [5], the “fold less potent than 24” value came out at 5 fold and the Ki turned out to be 6.64 nM.

Turning to `CCc1c(C(C)C)[nH]c2nc3cc(C)ccc3n2c1=O` [Compound 29], on MRGPRX2 [3], the EC50 was above 10000 nM and the “β-Arrestin assay % activation” value is given as -2%. Further, the Ki on MRGPRX2 [4] was determined as 29.6 ± 19 nM. On MRGPRX2 [5], the “fold improved potency compared to 27” value was found to be 40 fold; the “MRGPRX2 antagonistic potency in Ca2+ assay, in words” value (shortened to “MRGPRX2 antagonistic potency”) was “subnanomolar potencies”; the Ki was determined as 0.161 nM.

With `CCc1c(C(C)C)[nH]c2nc3cc(F)ccc3n2c1=O` [Compound 30, 3-ethyl-8-fluoro-2-isopropylbenzo[4,5]imidazo[1,2-a]pyrimidin-4(1H)-one], in data set [1], the CC50 at 72 h is above 10000 nM and the cytotoxicity at 72 h, 10000 nM was determined as 30%. In data set [2], the half-life at 1 µM was found to be 14 min and the microsomal CLint at 1 µM was determined as 100 µL/min/mg. Further, on MRGPRX2 [3], the EC50 is above 10000 nM and the “β-Arrestin assay % activation” value is listed as -3%. In addition, on MRGPRX2 [4], the Ki came out at 5.89 ± 2.86 nM. Further, at MRGPRX2 [5], the “MRGPRX2 antagonistic potency” value is recorded as “subnanomolar potencies” and the Ki was 0.455 nM.

On to `CCc1c(C(C)C)[nH]c2nc3ncc(F)cc3n2c1=O` [Compound 32], for which, at MRGPRX2 [3], the EC50 is above 10000 nM and the “β-Arrestin assay % activation” value is reported as -3%. Besides, on MRGPRX2 [4], the Ki was determined as 824 ± 553 nM. Also, at MRGPRX2 [5], the “MRGPRX2 antagonistic potency” value was “reduced potency dramatically” and the Ki stood at 931 ± 685 nM.

With `CCc1c(C(C)C)[nH]c2nc3nc(F)ccc3n2c1=O` [Compound 33], in data set [2], the half-life at 1 µM stood at 48.8 min and the microsomal CLint at 1 µM was determined as 28.4 µL/min/mg. Also, at MRGPRX2 [4], the Ki came out at 1610 nM. In addition, on MRGPRX2 [5], the “MRGPRX2 antagonistic potency” value was “reduced potency dramatically” and the Ki worked out at 906 ± 137 nM.

Consider `CN(C)[C@@H]1CCN(c2cc(-c3ccccc3)nc3ccnn23)C1` [ZINC-3573], for which, on MRGPRX2 [6], the EC50 is 760 nM.
